The target in series [1] is T1, BuChE isolated from human plasma (hBuChE) (Homo sapiens, UniProt P06276).
T1 construct: BuChE isolated from human plasma (hBuChE); tissue Vivonics (Bedford, MA, USA), donated; host or cells: human plasma
As to the kind of experiment: biochemical. Format: biochemical. The following applies: mean ± SEM of at least three experiments. The procedure:
(§1) 5-HT6R binding affinity and cholinesterase (AChE/BuChE) inhibitory activity. […] Their affinities for recombinant human 5-HT6 receptors (h5-HT6R) were tested in a radioligand binding assay and the inhibitory potencies against human recombinant AChE (hAChE) and BuChE isolated from human plasma (hBuChE) in the spectrophotometric Ellman’s assay.
(§2) The assay was based on spectrophotometric Ellman’s method and was performed in 96-well microplates with the reagents purchased from Sigma-Aldrich (Steinheim, Germany) according to the previously described procedure. hBuChE was kindly donated by Vivonics (Bedford, MA, USA). […] After 5 minutes of the enzymatic reaction, the changes in absorbance were measured at 412 nm, using a microplate reader (SPECTROstar Nano; BMG Labtech, Ortenberg, Germany). First, compounds were tested at the screening concentration of 10 µM. Based on the equation 100 − (S/B) × 100 (where S and B were the respective enzyme activities with and without the test sample, respectively) the percentage inhibition of each enzyme for each compound was calculated. […] The IC50 values were calculated using nonlinear regression (GraphPad Prism 5; GraphPad Software, San Diego, CA, USA) by plotting the residual enzyme activities against the applied inhibitor concentration. […] All experiments were performed in triplicate.

Series [2] addresses T2, CYP2D6 (Homo sapiens, UniProt P10635).
T2 construct: purchased Promega, Madison, WI, USA
The experiment in a line: CYP P450-Glo luminescence assay, CYP2D6. It counts as in vitro ADME. An excerpt: Influence on CYP3A4 and CYP2D6 activity. Possible drug–drug interactions (DDIs) are an important issue for elderly patients, who are usually on multiple medications. They may result, among other things, from the interactions (inhibition or activation) of the cytochrome P450 isoenzymes, especially CYP3A4 and CYP2D6, which play the most significant role in drugs’ biotransformation. Therefore, to predict the potential influence of the studied compounds (14, 16 and 19) on the metabolism of other drugs, we used the CYP450 inhibition luminescence assay (Promega). […]. […] […]. […] […].
The influence on CYP 3A4 and 2D6 activity was estimated by respective luminescent CYP P450-Glo™ assay (Promega®, Madison, WI, USA). The compounds were tested in the concentration range of 0.1–25 µM. The results were compared to the respective reference CYP inhibitors: ketoconazole and quinidine.

Series [3] can be described thus: Metabolic stability in human liver microsomes. Format: in vitro ADME. The protocol:
Metabolic stability. […] For detailed results, including UPLC chromatograms and MS spectra, see the Supporting information (Figures S1–S16).
The metabolic stability was evaluated by incubation of compounds with human liver microsomes (Sigma-Aldrich, St. Louis, MO, USA) in 10 mM Tris–HCl buffer (pH 7.4) at 37 °C for 120 min in the presence of NADPH Regeneration System (Promega, Madison, WI, USA). The percentage of the remaining substrate and the most probable metabolic pathways were estimated by UPLC-MS analyses of the reaction mixtures.

The nature of series [4]: ABTS free radical scavenging assay. An excerpt: Antioxidant activity. As mentioned before, oxidative stress is one of the components of AD pathomechanism and is characterised by an imbalance in the production of ROS. One of the mechanisms by which antioxidants reduce the concentration of ROS and therefore prevent or slow the cell damage caused by free radicals is scavenging them. Thus, we tested the scavenging ability of compounds 12–19 in the spectrophotometric ABTS assay that we used before. In this assay, the ability of compounds to scavenge ABTS^• radicals, which are generated from 2,2’-azino-bis(3-ethylbenzothiazoline-6-sulphonic acid) (ABTS), is measured. We tested the compounds at three concentrations: 30, 75 and 150 μM after 5, 30 and 60 min of incubation using Trolox, a water-soluble vitamin E analogue, as a reference (Table S1 in Supporting information).
The spectrophotometric ABTS assay was performed in 96-well microplates with the reagents purchased from Sigma-Aldrich (Steinheim, Germany) according to the previously described procedure. Stock solutions of the tested compounds (6.4 mM) and reagents were prepared in DMSO and water, respectively. 2,2′-Azino-bis(3-ethylbenzothiazoline-6-sulfonic acid) free radical (ABTS^•) was prepared by mixing the stock solution of ABTS (7 mM) and […] (2.45 mM) in ratio 1:1. The mixture was kept in the dark at 4 °C for 16 h. The obtained solution of (ABTS^•) was diluted with water 20 times. Then, the test compound or water or mixture of DMSO/water in the appropriate ratio (0.02 mL) was added to ABTS^• solution (0.18 mL). The three concentrations of the test compounds and Trolox were tested in triplicate: 0.15, 0.075 and 0.03 mM. Changes in absorbance were measured at 734 nm after 5, 30 and 60 min, using a microplate reader (SPECTROstar Nano; BMG Labtech, Ortenberg, Germany). Based on the equation ((A0 − A)/A0) × 100% (where A0 and A were the absorbances without and with the test compound, respectively) the percentage of free radical scavenging activity was calculated. The results are presented as mean ± SD.

Series [5] addresses T3, human recombinant AChE (hAChE) (Homo sapiens, UniProt P22303).
T3 construct: purchased Sigma-Aldrich (Steinheim, Germany)
The experiment in a line: biochemical. The following applies: mean ± SEM of at least three experiments. The procedure:
as §1, §2

The target of series [6] is T4, human 5-HT6 receptor (Homo sapiens, UniProt P50406).
T4 construct: purchased PerkinElmer; host or cells: CHO-K1 cells, stably transfected (membrane preparation)
T4 sequence (P50406 whole entry): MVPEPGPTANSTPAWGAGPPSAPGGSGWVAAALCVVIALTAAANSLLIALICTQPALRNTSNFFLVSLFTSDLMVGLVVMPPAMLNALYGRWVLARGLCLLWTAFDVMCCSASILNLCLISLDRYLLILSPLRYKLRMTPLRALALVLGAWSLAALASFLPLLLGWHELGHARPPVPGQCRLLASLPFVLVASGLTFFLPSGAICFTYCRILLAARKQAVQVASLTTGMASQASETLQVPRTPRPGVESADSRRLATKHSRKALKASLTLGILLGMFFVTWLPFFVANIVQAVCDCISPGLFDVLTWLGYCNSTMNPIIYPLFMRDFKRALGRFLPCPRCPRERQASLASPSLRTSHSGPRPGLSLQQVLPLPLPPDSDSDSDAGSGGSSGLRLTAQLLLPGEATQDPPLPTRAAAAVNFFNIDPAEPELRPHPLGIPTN
The experiment in a line: 5-HT6 receptor radioligand binding assay ([3H]-LSD, CHO-K1 membranes). The procedure: 5-HT6R binding affinity and cholinesterase (AChE/BuChE) inhibitory activity. We evaluated the pharmacological properties of the final compounds 12–19 in vitro according to the previously described, well-established protocols. Their affinities for recombinant human 5-HT6 receptors (h5-HT6R) were tested in a radioligand binding assay and the inhibitory potencies against human recombinant AChE (hAChE) and BuChE isolated from human plasma (hBuChE) in the spectrophotometric Ellman’s assay. […].
We prepared 10 mM of stock solutions of tested compounds in DMSO. Serial dilutions of compounds were prepared in a 96-well microplate in assay buffers using the automated pipetting system epMotion 5070 (Eppendorf). Each compound was tested in 8 concentrations from 10^−5 to 10^−12 M (final concentration).
The radioligand binding assay was performed using membranes from CHO-K1 cells stably transfected with the human 5-HT6 receptor (PerkinElmer) according to the previously described procedure. All assays were carried out in duplicates. We prepared 50 µL working solution of the tested compounds, 50 µL [^3H]-LSD (final concentration 2.5 nM) and 150 µL diluted membranes (15 µg protein per well) in assay buffer (50 mM Tris, pH 7.4, 10 mM MgCl2, 0.1 mM EDTA) and transferred them to polypropylene 96-well microplates using a 96-well pipetting station Rainin Liquidator (MettlerToledo). Methiothepin (10 μM) was used to define nonspecific binding. The microplate was covered with sealing tape, mixed and incubated for 60 min at 27 °C. The reaction was terminated by rapid filtration through GF/B filter mate presoaked with 0.5% polyethyleneimine for 30 min. Ten rapid washes with 200 µL 50 mM Tris buffer (4 °C, pH 7.4) were performed using the automated harvester system Harvester-96 MACH III FM (Tomtec). The filter mates were dried at 37 °C in a forced air fan incubator and then solid scintillator MeltiLex was melted on filter mates at 90 °C for 5 min. Radioactivity was counted in MicroBeta2 scintillation counter (PerkinElmer). Data were fitted to a one-site curve-fitting equation with Prism 6 (GraphPad Software) and Ki values were estimated from the Cheng−Prusoff equation.

Series [7] can be described thus: Metabolic stability in mouse liver microsomes. It counts as in vitro ADME. To be noted: 2 h, pH 7.4. (In general: Liver microsomes are vesicles of endoplasmic reticulum, rich in cytochrome P450 enzymes.)
Series [8] relates to patients with moderate Alzheimer’s dementia. To be noted: phase II, adjunct to cholinesterase inhibitors, moderate Alzheimer’s dementia ref 14, 15; cited from earlier work.

T2 sequence (P10635 whole entry): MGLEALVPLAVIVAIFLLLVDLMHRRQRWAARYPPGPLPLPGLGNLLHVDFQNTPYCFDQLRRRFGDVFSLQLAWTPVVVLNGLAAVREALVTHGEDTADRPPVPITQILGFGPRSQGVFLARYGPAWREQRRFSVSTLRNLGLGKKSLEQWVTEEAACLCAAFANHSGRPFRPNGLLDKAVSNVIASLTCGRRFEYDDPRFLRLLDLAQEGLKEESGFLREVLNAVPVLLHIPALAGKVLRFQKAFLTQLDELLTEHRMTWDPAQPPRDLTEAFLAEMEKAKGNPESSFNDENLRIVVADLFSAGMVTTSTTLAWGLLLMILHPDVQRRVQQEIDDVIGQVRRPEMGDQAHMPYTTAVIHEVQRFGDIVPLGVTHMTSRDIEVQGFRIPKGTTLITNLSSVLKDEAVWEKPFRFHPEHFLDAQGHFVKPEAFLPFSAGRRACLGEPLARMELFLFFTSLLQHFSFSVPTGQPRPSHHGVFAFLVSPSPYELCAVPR
T1 sequence (P06276 29-602): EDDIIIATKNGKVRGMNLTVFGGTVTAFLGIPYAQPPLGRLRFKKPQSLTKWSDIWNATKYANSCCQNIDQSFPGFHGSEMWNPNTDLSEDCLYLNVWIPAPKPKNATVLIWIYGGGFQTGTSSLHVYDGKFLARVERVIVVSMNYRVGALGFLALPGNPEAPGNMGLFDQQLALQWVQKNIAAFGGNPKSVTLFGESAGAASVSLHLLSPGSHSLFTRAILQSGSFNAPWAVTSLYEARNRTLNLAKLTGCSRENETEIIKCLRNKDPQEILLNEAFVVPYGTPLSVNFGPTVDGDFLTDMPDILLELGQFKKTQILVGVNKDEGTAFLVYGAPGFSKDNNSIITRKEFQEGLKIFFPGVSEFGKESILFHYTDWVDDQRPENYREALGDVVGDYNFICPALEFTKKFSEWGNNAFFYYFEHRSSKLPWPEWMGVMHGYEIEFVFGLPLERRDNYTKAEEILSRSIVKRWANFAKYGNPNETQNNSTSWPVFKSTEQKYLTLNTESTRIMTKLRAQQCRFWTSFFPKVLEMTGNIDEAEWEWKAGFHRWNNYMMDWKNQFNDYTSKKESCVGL
T3 sequence (P22303 32-614): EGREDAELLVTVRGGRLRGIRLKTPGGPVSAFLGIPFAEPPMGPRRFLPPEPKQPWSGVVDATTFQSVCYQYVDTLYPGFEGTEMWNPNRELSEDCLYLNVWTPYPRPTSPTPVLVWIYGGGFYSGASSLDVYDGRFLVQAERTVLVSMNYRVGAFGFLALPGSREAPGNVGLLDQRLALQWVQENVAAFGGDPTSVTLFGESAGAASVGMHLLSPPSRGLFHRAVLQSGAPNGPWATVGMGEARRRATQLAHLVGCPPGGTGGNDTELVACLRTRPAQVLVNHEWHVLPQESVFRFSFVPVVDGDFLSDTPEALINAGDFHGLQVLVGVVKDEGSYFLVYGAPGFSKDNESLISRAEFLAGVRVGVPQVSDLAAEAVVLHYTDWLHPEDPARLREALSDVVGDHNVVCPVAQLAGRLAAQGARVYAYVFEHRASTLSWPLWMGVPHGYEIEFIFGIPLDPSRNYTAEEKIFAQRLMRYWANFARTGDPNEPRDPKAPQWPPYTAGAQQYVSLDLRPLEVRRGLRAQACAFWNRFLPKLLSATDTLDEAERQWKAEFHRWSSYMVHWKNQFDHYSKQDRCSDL

As usually defined, the IC50 is the concentration at which inhibition is half-maximal. What is called Ki is the dissociation constant of the complex between target and ligand, obtained from inhibition or displacement. Low values mean tighter binding, high ones weaker binding. Regarding `O=c1[nH]c2c(OCCNCCCC3CCN(Cc4ccccc4)CC3)cccc2n1Cc1ccccc1` [Compound 19, 1-Benzyl-4-(2-((3-(1-benzylpiperidin-4-yl)propyl)amino)ethoxy)-1,3-dihydro-2H-benzo[d]imidazol-2-one], the IC50 in series [1] came to 613 ± 11 nM; in series [5], 544 ± 15 nM. Besides, the “influence on the activity of CYP2D6” value is on record as “did not influence the activity of CYP2D6” in series [2] (0.1 µM) and “CYP2D6-activating effect” in series [2] (1 µM). Further, in series [3], the main metabolic pathway result is “oxidative deamination”. In series [3] (human, 2 h, pH 7.4), the “HLMs % Left” value came out at 94.00%. Further, the “% of ABTS• reduction ± SD” value in series [4] (30 µM, 5 min) is given as 10±0%; in series [4] (30 µM, 30 min), 17±0%; in series [4] (30 µM, 60 min) it was 22±1%; in series [4] (75 µM, 5 min) it was 14±1%; in series [4] (75 µM, 30 min) it was 24±2%; in series [4] (75 µM, 60 min), 30±2%. The “% of ABTS• reduction ± SD” value in series [4] (150 µM, 5 min) was found to be 25±4%; in series [4] (150 µM, 30 min), 37±5%; in series [4] (150 µM, 60 min), 43±4%. Further, in series [6], the affinity, expressed as Ki, was 480 ± 48 nM. For the same compound, the “MLMs % Left” value in series [7] came to 79.38%.
With `Fc1ccc2c(CCNCc3cccc(OCC(F)(F)C(F)F)c3)c[nH]c2c1` [Idalopirdine], in series [8], the effects on cognition result is “positive effects on cognition”.
Regarding `O=S(=O)(c1ccccc1)c1cnc2c(N3CCNCC3)cccc2c1` [intepirdine], in series [8], the effects on cognition result was “positive effects on cognition”.

The values are drawn from article PMC9409043, “Serotonin 5-HT6 Receptor Ligands and Butyrylcholinesterase Inhibitors Displaying Antioxidant Activity—Design, Synthesis and Biological Evaluation of Multifunctional Agents against Alzheimer’s Disease” (International Journal of Molecular Sciences, 2022).
